Experimental data: patent publication US10745365B2, “Luminogenic and fluorogenic compounds and methods to detect molecules or conditions” (Promega Corporation, priority 2005, dated 2020)

Legend:
Type in all cases: biochemical
[1] = system: panel of recombinant human P450s; experiment: Two-step luminescent screen of luciferin derivatives against a panel of recombinant human P450s and HLM; conditions: 50 μM substrate, panel of FIGS. 17-18
Procedure: P450s are Supersomes™ purchased from Discovery Labware (BD/Gentest). […] HLM is human liver microsomes.
1× substrate concentration: 50 μM.
The HLM reactions contained […] reaction, except where indicated otherwise. Control insect cell membranes were at 50 μg/50 μL.
For FIG. 20, the panel of human P450s was screened as described above.

[2] = system: thermostable luciferase (Luc 146-1H2); experiment: Residual active thermostable luciferase after reaction with derivative (Steady Glo); conditions: substrate 100; +DTT; sample taken 60 min
Procedure: After assembly, the reactions were initiated by addition of 25 μl of the thermostable luciferase stock solution above and mixing the tube contents. A 50 μl sample was immediately removed and placed in a luminometer tube and the light read and the tube then replaced in a tube rack at room temperature. While the light reading was being taken, a 5 μl sample of the remaining reaction (which was kept at room temperature) was diluted into 495 μl of 50 mM BisTris, pH 6.5, 1 mg/ml BSA, 1 mM EDTA prechilled to 4° C. and the tube mixed and placed on ice. The light produced by the samples in the luminometer tubes were re-read at 20, 40, 60, 90 and 120 minutes post enzyme addition. Additional 5 μl samples were taken and diluted as above at 60 and 120 minutes post enzyme addition. Once all these readings and samples were taken, 50 μl of the diluted samples was mixed with 50 μl of Steady Glo in luminometer tubes, the tubes incubated 10 minutes […] then the light produced was read on a Turner TD 20/20 luminometer.

[3] = molecular target: T1, yeast alcohol dehydrogenase (Saccharomyces cerevisiae, UniProt P00330); experiment: Conversion of luciferol by yeast alcohol dehydrogenase; conditions: room temperature
T1 construct: purchased Sigma Chem Co. A 7011
T1 sequence (P00330 1-348): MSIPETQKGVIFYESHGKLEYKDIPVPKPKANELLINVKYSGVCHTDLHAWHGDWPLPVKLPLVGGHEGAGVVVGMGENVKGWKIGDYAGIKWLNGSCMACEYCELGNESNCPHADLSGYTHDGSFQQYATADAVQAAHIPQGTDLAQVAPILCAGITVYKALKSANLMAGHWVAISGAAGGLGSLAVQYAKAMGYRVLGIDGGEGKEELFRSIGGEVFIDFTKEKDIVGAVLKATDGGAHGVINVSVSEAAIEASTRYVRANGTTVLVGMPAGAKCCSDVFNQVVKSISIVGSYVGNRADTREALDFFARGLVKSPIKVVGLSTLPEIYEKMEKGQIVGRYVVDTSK
Procedure: A luciferin derivative, luciferol, was employed as a substrate for alcohol dehydrogenase (ADH). The derivative was tested in a two step format. For the first step, the derivative was added to a mixture with one of four ADHs. At different times after the reaction was initiated, a portion was removed and mixed with a luciferase reaction mixture. Reactions in which light production increased over time indicate that luciferol is a substrate for the ADH in that reaction.
Y ADH solution: 7500 units of yeast alcohol dehydrogenase (Sigma Chem Co. A 7011) was dissolved in 1 ml of 50 mM Bis Tris pH 6.5.
NAD+ solution: 66 mg of NAD+(Sigma Chem. Co. N 1511-250) was dissolved in 2 ml of Bis Tris, pH 6.5 and 8 ml of water.
Luciferol solution: approximately 4 mg of luciferol was dissolved in 1 ml of dimethylformamide (Aldrich 27,054-7).
AU reactions were kept at room temperature.

COc1ccc2nc(C3=NC(C(=O)OCc4cccnc4)CS3)sc2c1 (stereo not shown)
P450 enzyme activity / selectivity (words) [1]: preference for 2D6, 1A1 and 1A2

4-(O-methyl)-6-(O-methyl)-luciferin
P450 enzyme activity / selectivity (words) [1]: enhanced selectivity for 1 A2, 2C8 and 2C9

4-methyl-6-(O-methyl)-luciferin
P450 enzyme activity / selectivity (words) [1]: enhanced selectivity for 1 A2, 2C8 and 2C9

Cc1cc(C)c(COc2ccc3nc(C4=N[C@@H](C(=O)O)CS4)sc3c2)c(C)c1 [6′(2,4,6-trimethylbenzyloxy)-luciferin]
P450 enzyme activity / selectivity (words) [1]: selective for three members of the CYP3A subfamily, CYP3A4, CYP3A5 and CYP3A7
P450 enzyme activity / selectivity (words) ([1]; listed as 6(2,4,6 trimethylbenzyl)-luciferin): showed substantial activity with CYP3A4 and did not show substantial cross reactivity with CYP4F12

O=C(O)[C@H]1CSC(c2nc3ccc(OCc4ccccc4C(F)(F)F)cc3s2)=N1 [6′(o-trifluoromethylbenzyloxy)-luciferin]
P450 enzyme activity / selectivity (words) [1]: selective for three members of the CYP3A subfamily, CYP3A4, CYP3A5 and CYP3A7
P450 enzyme activity / selectivity (words) ([1]; listed as 6—O-trifluoromethylbenzyl luciferin): showed substantial activity with CYP3A4 and did not show substantial cross reactivity with CYP4F12

O=C(O)[C@H]1CSC(c2nc3ccc(OCc4c(F)c(F)c(F)c(F)c4F)cc3s2)=N1 [6′-(2,3,4,5,6-pentafluorobenzyloxy)-luciferin]
P450 enzyme activity / selectivity (words) [1]: selective for three members of the CYP3A subfamily, CYP3A4, CYP3A5 and CYP3A7
P450 enzyme activity / selectivity (words) ([1]; listed as 6(2,3,4,5,6 pentafluorbenzyloxy)-luciferin): showed substantial activity with CYP3A4 and did not show substantial cross reactivity with CYP4F12

O=C(O)[C@H]1CSC(c2nc3ccc(OCSc4ccc(Cl)cc4)cc3s2)=N1 [6′-p-chlorophenylthiol-methoxy-luciferin, 6-(4-Chloro-phenylthiomethoxy)luciferin]
P450 enzyme activity / selectivity (words) [1]: showed selectivity for CYP3A7

O=C(O)[C@H]1CSC(c2ccc3cc(OCOCc4ccccc4)ccc3n2)=N1 [6′benzyloxymethoxy-quinolylluciferin]
P450 enzyme activity / selectivity (words) [1]: selective for three members of the CYP3A subfamily, CYP3A4, CYP3A5 and CYP3A7

O=C(O)[C@H]1CSC(c2nc3ccc(OCc4ccccc4)cc3s2)=N1 [L'in-BE]
light value of diluted reaction sample in Steady Glo [2]: 962.1

O=C(O)C1CSC(c2nc3ccc(OCc4cccc(CN5CCN(c6ccccc6)CC5)c4)cc3s2)=N1 (stereo not shown) [Luciferin 3-(4-phenylpiperazin-1-yl)methylbenzyl ether]
P450 enzyme activity / selectivity (words) [1]: selective for three members of the CYP3A subfamily, CYP3A4, CYP3A5 and CYP3A7
P450 enzyme activity / selectivity (words) ([1]; listed as 6′(3-((4-phenylpiperizin-1-yl))methyl)benzyloxy) luciferin): did not cross react with 4F1 2

O=C(Nc1ccc2nc(C3=NC(C(=O)O)CS3)sc2c1)OCc1ccccc1 (stereo not shown) [N-benzyloxycarbonyl aminoluciferin]
P450 enzyme activity / selectivity (words) [1]: strong selectivity for CYP1A1

CC(C)COC(=O)Nc1ccc2nc(C3=NC(C(=O)O)CS3)sc2c1 (stereo not shown) [N-isobutoxycarbonyl aminoluciferin]
P450 enzyme activity / selectivity (words) [1]: strong selectivity for CYP1A1

COc1ccc2cc(C3=N[C@@H](C(=O)O)CS3)ccc2c1 [Naphthylluciferin 6-methyl ether]
P450 enzyme activity / selectivity (words) [1]: substrate for 4A11

COc1ccc2nc(C3=NC(C(=O)O)CS3)ccc2c1 (stereo not shown) [Quinolylluciferin 6-methyl ether]
P450 enzyme activity / selectivity (words) [1]: preferred substrate for 1A2 and 4A1 1
P450 enzyme activity / selectivity (words) ([1]; listed as quinolyl luciferin-6-methyl ether): enhanced selectivity for CYP4A11

COC(=O)[C@H]1CSC(c2nc3ccc(OC)cc3s2)=N1 [carboxyl ester of luciferin-ME, carboxyl methyl ester of luciferin-ME]
P450 enzyme activity / selectivity (words) [1]: reacted strongly with several other P450s including CYP2C19

COC(=O)[C@H]1CSC(c2nc3ccccc3s2)=N1 [carboxyl methyl ester of deoxyluciferin]
P450 enzyme activity / selectivity (words) [1]: substantial activity with CYP2C19 and strong selectivity for this enzyme over the others tested

O=C(OCc1cccnc1)[C@H]1CSC(c2nc3ccccc3s2)=N1 [carboxyl picolinyl ester of luciferin-H]
P450 enzyme activity / selectivity (words) [1]: preference for 2C19, 1A1 and 1A2

COc1ccc2nc(C3=N[C@@H](C(=O)O)CS3)sc2c1 [luciferin 6-methyl ether, reference compound]
P450 enzyme activity / selectivity (words) [1]: extremely low activity with CYP2D6

COc1ccc2nc(C3=N[C@@H](C(=O)NN)CS3)sc2c1 [luciferin-6-methylether hydrazide]
P450 enzyme activity / selectivity (words) [1]: good selectivity for CYP 1A2 over the other P450s tested

OC[C@H]1CSC(c2nc3ccc(O)cc3s2)=N1 [luciferol]
Light produced ([3]; Rx 7: 5 μl yeast ADH, 30 minutes after luciferol addition): 6.184
Light produced ([3]; Rx 7: 5 μl yeast ADH, 60 minutes after luciferol addition): 6.052
Light produced ([3]; Rx 7: 5 μl yeast ADH, 95 minutes after luciferol addition): 5.980
Light produced ([3]; Rx 7: 5 μl yeast ADH, 190 minutes after luciferol addition): 6.640
Light produced ([3]; Rx 7: 5 μl yeast ADH, 280 minutes after luciferol addition): 7.988
Light produced ([3]; Rx 8: 10 μl yeast ADH, 30 minutes after luciferol addition): 6.126
Light produced ([3]; Rx 8: 10 μl yeast ADH, 60 minutes after luciferol addition): 5.468
Light produced ([3]; Rx 8: 10 μl yeast ADH, 95 minutes after luciferol addition): 5.552
Light produced ([3]; Rx 8: 10 μl yeast ADH, 190 minutes after luciferol addition): 6.198
Light produced ([3]; Rx 8: 10 μl yeast ADH, 280 minutes after luciferol addition): 6.903
Light produced ([3]; Rx 9: 20 μl yeast ADH, 30 minutes after luciferol addition): 5.406
Light produced ([3]; Rx 9: 20 μl yeast ADH, 60 minutes after luciferol addition): 5.608
Light produced ([3]; Rx 9: 20 μl yeast ADH, 95 minutes after luciferol addition): 6.301
Light produced ([3]; Rx 9: 20 μl yeast ADH, 190 minutes after luciferol addition): 5.825
Light produced ([3]; Rx 9: 20 μl yeast ADH, 280 minutes after luciferol addition): 6.734
Light produced ([3]; Rx 10: 20 μl yeast ADH, 10 μl luciferol, 30 minutes after luciferol addition): 9.672
Light produced ([3]; Rx 10: 20 μl yeast ADH, 10 μl luciferol, 60 minutes after luciferol addition): 9.531
Light produced ([3]; Rx 10: 20 μl yeast ADH, 10 μl luciferol, 95 minutes after luciferol addition): 10.00
Light produced ([3]; Rx 10: 20 μl yeast ADH, 10 μl luciferol, 190 minutes after luciferol addition): 10.36
Light produced ([3]; Rx 10: 20 μl yeast ADH, 10 μl luciferol, 280 minutes after luciferol addition): 11.71

O=C(O)C1CSC(c2ccc3cc(OCc4ccccc4)ccc3n2)=N1 (stereo not shown) [quinolylluciferin 6-benzyl ether]
P450 enzyme activity / selectivity (words) [1]: preferred substrate for 3A7, and to a lesser degree a substrate for 3A4 and 2C8

COc1ccc2nc(C3=NC(C(=O)O)CS3)cnc2c1 (stereo not shown) [quinoxalylluciferin 6-methyl ether]
P450 enzyme activity / selectivity (words) [1]: substrate for 4A11
